Species on record: Rattus norvegicus
Experiment: Open TG-GATES - Regimen: Daily Repeat
Type: toxicity, organism-based, Sprague-Dawley
Design: regimen Daily Repeat, gender Male, age 6 weeks
Settings: in vivo, po, 0 mg/kg, route gavage, dose level Control; for APTT / Bas / Eos / Fbg / Hb / Ht / Lym / MCH / MCHC / MCV / Mono / Neu / PT / Plat / RBC / Ret / WBC: tissue Blood; for KIDNEY_L / KIDNEY_R / KIDNEY_TOTAL: tissue Kidney; for LIVER: tissue Liver; for A/G / ALP / ALT / AST / BUN / CRE / Ca / Cl / DBIL / GLC / IP / K / LDH / Na / PL / RALB / TBIL / TC / TG / TP / gamma-GTP: tissue Plasma

In the case of `ClC(Cl)(Cl)Cl` [CARBON TETRACHLORIDE], the TERMINAL_BW (72 h, time 3 day) is reported as 223.2 g, the APTT (72 h, time 3 day) is reported as 17 s and the Bas (72 h, time 3 day) is reported as 0%. For the same molecule, the Eos (72 h, time 3 day) was 1%, the Fbg (72 h, time 3 day) was 234.4 mg/dL and the Hb (72 h, time 3 day) was 13.7 g/dL. It also gave a Ht (72 h, time 3 day) of 40.1%, a Lym (72 h, time 3 day) of 82.4% and an MCH (72 h, time 3 day) of 21.8 pg. For the same molecule, the MCHC (72 h, time 3 day) was 34.2%, the MCV (72 h, time 3 day) was 63.7 fL and the Mono (72 h, time 3 day) was 2.8%. The Neu (72 h, time 3 day) was 13%, the PT (72 h, time 3 day) was 11.6 s and the Plat (72 h, time 3 day) was 129.5 x10_4/uL. The RBC (72 h, time 3 day) was 629.2 x10_4/ul, the Ret (72 h, time 3 day) was 7.4% and the WBC (72 h, time 3 day) was 96.4 x10_2/uL. The KIDNEY_L (72 h, time 3 day) was 0.9 g, the KIDNEY_R (72 h, time 3 day) was 1 g and the KIDNEY_TOTAL (72 h, time 3 day) was 1.9 g. The LIVER (72 h, time 3 day) was 10.9 g, the A/G (72 h, time 3 day) was 1.5 and the ALP (72 h, time 3 day) was 1075.2 IU/L. For the same molecule, the ALT (72 h, time 3 day) was 44.8 IU/L, the AST (72 h, time 3 day) was 71.2 IU/L and the BUN (72 h, time 3 day) was 16.2 mg/dL. The CRE (72 h, time 3 day) was 0.4 mg/dL, the Ca (72 h, time 3 day) was 10.9 mg/dL and the Cl (72 h, time 3 day) was 103 meq/L. The DBIL (72 h, time 3 day) was 0.08 mg/dL, the GLC (72 h, time 3 day) was 206.4 mg/dL and the IP (72 h, time 3 day) was 7.5 mg/dL. The K (72 h, time 3 day) was 3.9 meq/L, the LDH (72 h, time 3 day) was 208.6 IU/L and the Na (72 h, time 3 day) was 140 meq/L. The PL (72 h, time 3 day) was 155.4 mg/dL, the RALB (72 h, time 3 day) was 3.2 g/dL and the TBIL (72 h, time 3 day) was 0.1 mg/dL. It also gave a TC (72 h, time 3 day) of 82.4 mg/dL, a TG (72 h, time 3 day) of 86.6 mg/dL and a TP (72 h, time 3 day) of 5.5 g/dL. For the same molecule, the gamma-GTP (72 h, time 3 day) was 1 IU/L, the TERMINAL_BW ([…], time 7 day) was 257 g and the TERMINAL_BW ([…], time 14 day) was 300.9 g. The TERMINAL_BW ([…], time 28 day) was 389 g, the APTT ([…], time 7 day) was 18.3 s and the Bas ([…], time 7 day) was 0%. It also gave an Eos ([…], time 7 day) of 1%, a Fbg ([…], time 7 day) of 249.4 mg/dL and a Hb ([…], time 7 day) of 13.9 g/dL. For the same molecule, the Ht ([…], time 7 day) was 40.1%, the Lym ([…], time 7 day) was 84.6% and the MCH ([…], time 7 day) was 21.6 pg. It also gave an MCHC ([…], time 7 day) of 34.8%, an MCV ([…], time 7 day) of 61.9 fL and a Mono ([…], time 7 day) of 2.6%. The Neu ([…], time 7 day) was 11.2%, the PT ([…], time 7 day) was 11.5 s and the Plat ([…], time 7 day) was 129.8 x10_4/uL. It also gave an RBC ([…], time 7 day) of 647.4 x10_4/ul, a Ret ([…], time 7 day) of 6.1% and a WBC ([…], time 7 day) of 111 x10_2/uL. The APTT ([…], time 14 day) was 20.1 s, the Bas ([…], time 14 day) was 0% and the Eos ([…], time 14 day) was 0.8%. For the same molecule, the Fbg ([…], time 14 day) was 239 mg/dL, the Hb ([…], time 14 day) was 14.6 g/dL and the Ht ([…], time 14 day) was 42.9%. The Lym ([…], time 14 day) was 80.8%, the MCH ([…], time 14 day) was 20 pg and the MCHC ([…], time 14 day) was 34%. For the same molecule, the MCV ([…], time 14 day) was 58.9 fL, the Mono ([…], time 14 day) was 2.6% and the Neu ([…], time 14 day) was 15%. The PT ([…], time 14 day) was 11.5 s, the Plat ([…], time 14 day) was 124 x10_4/uL and the RBC ([…], time 14 day) was 728 x10_4/ul. For the same molecule, the Ret ([…], time 14 day) was 3.9%, the WBC ([…], time 14 day) was 114.8 x10_2/uL and the APTT ([…], time 28 day) was 22.7 s. For the same molecule, the Bas ([…], time 28 day) was 0%, the Eos ([…], time 28 day) was 1% and the Fbg ([…], time 28 day) was 227.4 mg/dL. It also gave a Hb ([…], time 28 day) of 15.1 g/dL, a Ht ([…], time 28 day) of 43.7% and a Lym ([…], time 28 day) of 83.8%. For the same molecule, the MCH ([…], time 28 day) was 19.3 pg, the MCHC ([…], time 28 day) was 34.6% and the MCV ([…], time 28 day) was 55.7 fL. The Mono ([…], time 28 day) was 2.6%, the Neu ([…], time 28 day) was 11.8% and the PT ([…], time 28 day) was 11.9 s. It also gave a Plat ([…], time 28 day) of 120.7 x10_4/uL, an RBC ([…], time 28 day) of 785.8 x10_4/ul and a Ret ([…], time 28 day) of 2.8%. For the same molecule, the WBC ([…], time 28 day) was 121 x10_2/uL, the KIDNEY_L ([…], time 7 day) was 1 g and the KIDNEY_R ([…], time 7 day) was 1 g. For the same molecule, the KIDNEY_TOTAL ([…], time 7 day) was 2.1 g, the KIDNEY_L ([…], time 14 day) was 1.2 g and the KIDNEY_R ([…], time 14 day) was 1.1 g. It also gave a KIDNEY_TOTAL ([…], time 14 day) of 2.3 g, a KIDNEY_L ([…], time 28 day) of 1.3 g and a KIDNEY_R ([…], time 28 day) of 1.4 g. The KIDNEY_TOTAL ([…], time 28 day) was 2.7 g, the LIVER ([…], time 7 day) was 12.5 g and the LIVER ([…], time 14 day) was 12.6 g. For the same molecule, the LIVER ([…], time 28 day) was 16.7 g, the A/G ([…], time 7 day) was 1.7 and the ALP ([…], time 7 day) was 922.4 IU/L. The ALT ([…], time 7 day) was 34.2 IU/L, the AST ([…], time 7 day) was 62.4 IU/L and the BUN ([…], time 7 day) was 16.2 mg/dL. For the same molecule, the CRE ([…], time 7 day) was 0.4 mg/dL, the Ca ([…], time 7 day) was 10.7 mg/dL and the Cl ([…], time 7 day) was 104 meq/L. The DBIL ([…], time 7 day) was 0.1 mg/dL, the GLC ([…], time 7 day) was 204.2 mg/dL and the IP ([…], time 7 day) was 7.4 mg/dL. The K ([…], time 7 day) was 4.2 meq/L, the LDH ([…], time 7 day) was 201.8 IU/L and the Na ([…], time 7 day) was 139.8 meq/L. The PL ([…], time 7 day) was 165.4 mg/dL, the RALB ([…], time 7 day) was 3.5 g/dL and the TBIL ([…], time 7 day) was 0.2 mg/dL. The TC ([…], time 7 day) was 81.8 mg/dL, the TG ([…], time 7 day) was 126.4 mg/dL and the TP ([…], time 7 day) was 5.5 g/dL. The gamma-GTP ([…], time 7 day) was 1.2 IU/L, the A/G ([…], time 14 day) was 1.4 and the ALP ([…], time 14 day) was 813 IU/L. For the same molecule, the ALT ([…], time 14 day) was 29.8 IU/L, the AST ([…], time 14 day) was 60.2 IU/L and the BUN ([…], time 14 day) was 14 mg/dL. The CRE ([…], time 14 day) was 0.5 mg/dL, the Ca ([…], time 14 day) was 10.4 mg/dL and the Cl ([…], time 14 day) was 103.8 meq/L. The DBIL ([…], time 14 day) was 0.062 mg/dL, the GLC ([…], time 14 day) was 215.8 mg/dL and the IP ([…], time 14 day) was 7.3 mg/dL. For the same molecule, the K ([…], time 14 day) was 3.7 meq/L, the LDH ([…], time 14 day) was 209.6 IU/L and the Na ([…], time 14 day) was 142.4 meq/L. The PL ([…], time 14 day) was 135.6 mg/dL, the RALB ([…], time 14 day) was 3.5 g/dL and the TBIL ([…], time 14 day) was 0.1 mg/dL. The TC ([…], time 14 day) was 69 mg/dL, the TG ([…], time 14 day) was 73.4 mg/dL and the TP ([…], time 14 day) was 5.9 g/dL. It also gave a gamma-GTP ([…], time 14 day) of 1 IU/L, an A/G ([…], time 28 day) of 1.4 and an ALP ([…], time 28 day) of 495 IU/L. For the same molecule, the ALT ([…], time 28 day) was 31.2 IU/L, the AST ([…], time 28 day) was 60.4 IU/L and the BUN ([…], time 28 day) was 16.4 mg/dL. The CRE ([…], time 28 day) was 0.5 mg/dL, the Ca ([…], time 28 day) was 10.5 mg/dL and the Cl ([…], time 28 day) was 102.2 meq/L. The DBIL ([…], time 28 day) was 0.07 mg/dL, the GLC ([…], time 28 day) was 238 mg/dL and the IP ([…], time 28 day) was 6.9 mg/dL. The K ([…], time 28 day) was 3.9 meq/L, the LDH ([…], time 28 day) was 211.6 IU/L and the Na ([…], time 28 day) was 140.4 meq/L. The PL ([…], time 28 day) was 143.8 mg/dL, the RALB ([…], time 28 day) was 3.5 g/dL and the TBIL ([…], time 28 day) was 0.1 mg/dL. The TC ([…], time 28 day) was 72.4 mg/dL, the TG ([…], time 28 day) was 83 mg/dL and the TP ([…], time 28 day) was 6 g/dL. It also gave a gamma-GTP ([…], time 28 day) of 0.8 IU/L.
